Laboratory results: US10793551B2, “Benzimidazole-indole inhibitors of Mnk1 and Mnk2” (eFFECTOR Therapeutics, Inc., priority 2017, dated 2020)

Biological target: T1, MNK
T1 construct: 10 nM recombinant MNK1 (Life Technologies, PR9138A)
Assay: MNK Biochemical Enzymatic Assay (ADP-Glo kinase assay)
Conditions: recombinant MNK1 (300 μM ATP) / MNK2 (10 μM ATP) described; table does not say which isoform; read-out: MNK Biochemical Enzymatic Assay (IC50) Potency
Protocol: Compounds are screened for MNK inhibition using the ADP-Glo kinase assay kit (Promega, catalogue No. V9101). All kinase reactions are performed in Reaction Buffer E (15 mM HEPES pH7.4, 20 mM NaCl, 1 mM EGTA, 10 mM MgCl2, 0.1 mg/ml BGG, and 0.02% Tween-20). Final MNK1 reactions contained 10 nM recombinant MNK1 (Life Technologies, PR9138A), 100 μM MNK substrate peptide Ac-TATKSGSTTKNR-NH2 (American Peptide Company), 300 μM ATP, and varying concentrations of the inhibitory compound of interest. Final MNK2 reactions contained 3 nM recombinant MNK2 (Life Technologies, PV5607), 50 μM MNK substrate peptide Ac-TATKSGSTTKNR-NH2 (American Peptide Company), 10 μM ATP, and varying concentrations of the inhibitory compound of interest. Final DMSO concentration in each reaction is 1%.
Kinase reactions are carried out in 96-well half-area white flat-bottom polystyrene plates in a final volume of 25 al. MNK1/2 enzymes are pre-incubated with compound and peptide substrate for 5 minutes prior to the addition of ATP. After the addition of ATP, kinase reactions are incubated at room temperature for 40 minutes. Reactions are subsequently stopped by the addition of 25 al of ADP-Glo Reagent and incubating for an additional 40 minutes. The final luminescent signal used for kinase activity readout is produced by the addition of 45 al of Kinase Detection Reagent (ADP-Glo kit, Promega) and incubating for 40 minutes. The luminescent signal is detected using a Victor 2 multilabel counter (Perkin Elmer) and the concentration of compound necessary to achieve inhibition of enzyme activity by 50% (IC50) is calculated using signals from an 8-point compound dilution series.
To this end, IC50 values of less than 1 μM are labeled as “+++”, from 1 to 10 μM are labeled as “++”, and from […] are labeled as “+”.

Structure (SMILES)	IC50 [µM]
CC(C)Cc1c(C(=O)N(C)C)ccc2c1ncn2-c1ncnc(N)c1Cl [Compound 10F, 1-(6-amino-5-chloropyrimidin-4-yl)-4-isobutyl-N,N-dimethyl-1H-benzo[d]imidazole-5-carboxamide]	1 to 10
CC(C)Cc1c(C(=O)N(C)C)ccc2c1ncn2-c1cc(N)ncn1 [Compound 11F, 1-(6-aminopyrimidin-4-yl)-4-isobutyl-N,N-dimethyl-1H-benzo[d]imidazole-5-carboxamide]	1 to 10
CC(C)Cc1c(C(N)=O)ccc2c1ncn2-c1ncnc(N)c1Cl [Compound 13F, 1-(6-amino-5-chloropyrimidin-4-yl)-4-isobutyl-1H-benzo[d]imidazole-5-carboxamide]	1 to 10

Results, then the compound that gave them:

IC50 [µM]	Structure (SMILES)
10 to 100	CC(C)Cc1c(C(N)=O)ccc2c1ccn2-c1ncnc(N)c1Cl [Compound 8F, 1-(6-amino-5-chloropyrimidin-4-yl)-4-isobutyl-1H-indole-5-carboxamide]
< 1	CC(C)Cc1c(C(N)=O)ccc2c(-c3ncnc(N)c3Cl)cn(C)c12 [Compound 9F, 3-(6-amino-5-chloropyrimidin-4-yl)-7-isobutyl-1-methyl-1H-indole-6-carboxamide]
1 to 10	CC(C)Cc1c(C(N)=O)ccc2c1cnn2-c1ncnc(N)c1Cl [Compound 12F, 1-(6-amino-5-chloropyrimidin-4-yl)-4-isobutyl-1H-indazole-5-carboxamide]
